# Data reported in patent US20250025451A1, “TREATMENT OF CANCER WITH KDM4 INHIBITORS” (Celgene Corporation, priority 2021, published 2025).
# What was measured:
# [1] = system: tumorigenic CD44^High;EpCAM^+ cells of SU60 xenograft tumors; experiment: flow cytometry analysis of tumorigenic cell population after treatment of SU60 xenograft tumors; type: in vivo; conditions: NSG female mice, 40 mg/kg PO QD x21
# Procedure: The ability of Compound 1 to affect tumorigenic potential was analyzed by flow cytometry analysis of the tumorigenic cell population and functional in vivo tumorigenicity assay (limiting dilution assay).
# To assess the effect of Compound 1 on tumorigenic cell population, Compound 1 was used to treat SU60 xenograft tumors. NSG female mice engrafted with SU60 cells (7 mice each group) were administered Compound 1 at 40 mg/kg PO QD×21. The day after the last dose, three tumors nearest to the mean size from each group were dissociated and the single cells were used to perform: 1) flow cytometry analysis of the tumorigenic cell population and 2) functional in vivo tumorigenicity assay (limiting dilution assay). Flow Cytometry Analysis of Tumorigenic Cell Population after Compound 1 Treatment
# The proportion of tumorigenic CD44^High;EpCAM^+ cells in the cell population was quantified by flow cytometry. […] Flow cytometry analysis performed on single cell isolated from 3 vehicle-treated and 3 Compound 1-treated tumors. P-value was determined with unpaired Student T-test.
# IMR-90 = experiment: cell-proliferation assay (BrdU, CTG), IMR-90 normal fibroblast; type: cell-based; conditions: IMR-90, (normal) human fetal lung fibroblast, 168 hours
# Procedure: Compound 1 was evaluated in in vitro cell-proliferation assays (BrdU assay, MTS assay, or Cell Titer Glo (CTG) assay) in multiple cancer cell lines and patient-derived organoid models to determine half-maximal inhibitory concentrations (IC50s).
# Viability and BrdU thymidine incorporation assays were performed in multiwell plates seeded with cells in growth medium. After seeding, multiwell plates were cultured for 24 hours in a humidified incubator at 37° C. to promote adherence. […] The cultures were incubated for 168 hours after which the number of viable cells or the amount of thymidine incorporation in each test well was assessed by the methods as indicated above. Readouts were performed using an EnVision® Multilabel Reader (PerkinElmer, Waltham, MA) and the results were expressed as a percent of the negative control. Percent of Control values were plotted against the corresponding Compound 1 concentration and the relative IC50 value was determined from a non-linear regression curve as the concentration where inhibition was half-maximal. For cell lines where the number of IC50 determinations exceeded one, the IC50 was expressed as the mean IC50±SD.
# Half-maximal inhibitory concentration (IC50) values for Compound 1 inhibition of cell proliferation were determined for nine cancer cell lines and one normal human fibroblastcell line.
# KDM4 = experiment: inhibition of H3K9me3 demethylation, TR-FRET LANCE detection; type: biochemical; conditions: in the presence of α-KG
# Procedure: Inhibition of […] demethylation was measured at various Compound 1 concentrations in the presence of α-KG using time-resolved fluorescence-based (TR-FRET) LANCE® detection.
# MDA-MB-231 cells = experiment: cell cycle analysis in MDA-MB-231 cells; type: cell-based
# Procedure: FIG. 3 illustrates that Compound 1 induces cell cycle arrest in S-phase. […] Cell cycle analysis was performed with MDA-MB-231 cells and using MultiCycle AV DNA analysis software.
# [2] = system: FS53 patient-derived breast cancer organoid model; experiment: organoid colony formation assay, FS53; type: cell-based, human
# Procedure: (§1) The IC50 values for Compound 1 inhibition of colony formation and viability were determined for the patient-derived colon cancer organoid models: SU60, T002C, SU62, SU34, SU103, T03SC, and SU106, patient-derived pancreatic cancer organoid models PA016SF, PA0143F, T016P, and T028P, and a patient-derived breast cancer organoid model FS5S3.
# (§2) Colony formation and viability assays were performed in multiwell plates seeded with organoids using an in vitro culture system composed of a Matrigel layer, media containing a defined set of growth factors, and co-culture with Wnt3 A-secreting mouse embryonic fibroblasts. Assays were initiated by adding either DMSO as a negative control, or an inhibitor panobinostatat 100×IC50 concentration as a positive control, or serially diluted Compound 1. The cultures were incubated for 168 or 144 hours after which the number of viable organoids in each test well was assessed respectively using one of two detection methods: CTG or staining with calcein-AM followed by imaging and colony counting. Colony count or viability of cells treated with compound 1 was expressed as a percent of the negative control. Aggregated Percent of Control values were plotted against the corresponding Compound 1 concentration and the absolute IC50 value was determined from a non-linear regression curve as the concentration where inhibition was 50% of the control.
# [3] = system: COH70 patient-derived triple negative breast cancer xenograft; experiment: in vivo efficacy, COH70 patient-derived triple negative breast cancer xenograft model; conditions: COH70 TNBC PDX; for % TGI: Day 36; for Median Tumor Volumes Diff.: Day 36 minus Day 1
# Procedure: The therapeutic in vivo efficacy of Compound 1 was evaluated in SU60 colorectal cancer, KYSE-150 esophageal cancer, COH70 triple-negative breast cancer, GXA-3036 gastric adenocarcinoma and OCI-LY19 Diffuse Large B-Cell Non-Hodgkin's Lymphoma xenograft models. In all studies, efficacy was determined based on percent tumor growth inhibition (TGI), differences in mean tumor growth, and statistical assessment of differences in net tumor volume distributions on the day of TGI analysis between control and treated animals. Tolerability was assessed based on differences in mean body weights between control and treated animals over the course of the study.
# The in vivo therapeutic efficacy and tolerability of Compound 1, administered orally as the free acid form in a PBS vehicle plus two equivalents of NaOH (final pH 10), was evaluated in a dose range study using the COH70 TNBC PDX model established in female NSG mice. Each mouse was inoculated subcutaneously in the abdomen with 2×10^6 COH70 tumor cells (0.2 ml) suspended in Matrigel. When the average tumor size reached ˜107 mm3, test animals were randomized into 5 groups consisting of 9 mice per group and treatments were initiated. Control mice received PBS (pH 10) vehicle PO QDx36. Treated mice received Compound 1 (dissolved in PBS+2 equivalents of NaOH, final pH 10) PO at 50, 40, 25, or 12.5 mg/kg QDx36. TGI was determined on Day 36 as (1−Difftreated/Diffcontrol)×100. Individual tumors were measured twice weekly in two dimensions using a caliper, and the tumor volumes (TV) in mm3 were calculated using the formula: TV=0.5 (l×w×h), where l, w, and h are the tumor length, width, and height in mm, respectively. Mean tumor volumes±SEM were calculated and plotted versus days of dosing (left panel). Body weights were measured twice weekly. Body weights±SEM were calculated and plotted versus days of dosing (right panel).
# [4] = system: T035C patient-derived colon cancer organoid model; experiment: organoid colony formation assay, T035C; type: cell-based, human
# Procedure: as §1, §2
structure (smiles),measurement,setting,value
"CC(C)c1ccc(N(C)c2ccc3c(c2)OCC[C@H]3CNc2cnccc2C(=O)O)cc1 [Compound 1, 3-({[(4R)-7-{methyl[4-(propan-2-yl)phenyl]amino}-3,4-dihydro-2H-1-benzopyran-4-yl]methyl}amino)pyridine-4-carboxylic acid]",reduction of the proportion of tumorigenic cells (CD44^High;EpCAM^+) compared to vehicle control,[1],2.5 fold
same,IC50,IMR-90,> 1 µM
same,mode of inhibition of H3K9me3 demethylation,KDM4,reversible and competitive inhibition
same,effect on cell cycle,MDA-MB-231 cells,increased proportion of cells in S-phase in a dose-dependent manner
same,IC50,[2]; FS53 human breast carcinoma model,13.6 µM
same,IC50,"[2]; FS53 human breast carcinoma organoid, 144 hrs, Colony Counts",13.6 µM
same,tolerability (dose-dependent mean body weight changes),"[3]; female NSG mice, 12.5-50 mg/kg PO QD x36",well-tolerated
same,mean body weight loss,"[3]; female NSG mice, PO QD x36, over the course of the study",6.5%
same,Median Tumor Volumes Day 36,"[3]; female NSG mice, free acid 12.5 mg/kg PO QD x36",685 mm^3
same,Median Tumor Volumes Day 36,"[3]; female NSG mice, free acid 25 mg/kg PO QD x36",524 mm^3
same,Median Tumor Volumes Day 36,"[3]; female NSG mice, free acid 40 mg/kg PO QD x36",282 mm^3
same,Median Tumor Volumes Day 36,"[3]; female NSG mice, free acid 50 mg/kg PO QD x36",295 mm^3
same,% TGI,[3]; 12.5 mg/kg PO QD x36,57%
same,Median Tumor Volumes Diff.,[3]; 12.5 mg/kg PO QD x36,581 mm^3
same,% TGI,[3]; 25 mg/kg PO QD x36,68%
same,Median Tumor Volumes Diff.,[3]; 25 mg/kg PO QD x36,424 mm^3
same,% TGI,[3]; 40 mg/kg PO QD x36,86%
same,Median Tumor Volumes Diff.,[3]; 40 mg/kg PO QD x36,184 mm^3
same,% TGI,[3]; 50 mg/kg PO QD x36,86%
same,Median Tumor Volumes Diff.,[3]; 50 mg/kg PO QD x36,191 mm^3
same,IC50,"[4]; Homo sapiens, T035C colorectal carcinoma model",> 10 µM
same,IC50,"[4]; T035C human colorectal carcinoma organoid, 144 hrs, Colony Counts",> 10 µM
